Among the data in ChEMBL document CHEMBL5523711, “Design, synthesis, and bioevaluation of SOS1 PROTACs derived from pyrido[2,3-d]pyrimidin-7-one-based SOS1 inhibitor” (Bioorg Med Chem Lett, 2024) are IC50 values, retold here.

Holding throughout (assay type): functional, cell-based
In assay [1] the test system is SW-620. Description: Antiproliferative activity against human SW620 cells harboring KRAS G12V mutant assessed as inhibition of cell growth.
Assay [2] deals with DLD-1. Description: Antiproliferative activity against human DLD-1 cells harboring KRAS G13D mutant assessed as inhibition of cell growth.
For assay [3], the system named is A549. Description: Antiproliferative activity against human A549 cells harboring KRAS G12S mutant assessed as inhibition of cell growth.

Take `COc1ccc(C(=O)N2CCC3(CCC(CN4CCN(C(=O)[C@H]5CC[C@H](c6cc7c(N[C@H](C)c8cc(N)cc(C(F)(F)F)c8)ncnc7n(C)c6=O)CC5)CC4)CC3)CC2)cc1N1CCC(=O)NC1=O`: the IC50 (usually the point on the concentration scale where inhibition reaches its midpoint) came out at 36.7 nM in assay [1], 107 nM in assay [2] and 52.2 nM in assay [3].

As to `COc1cc2nc(C)nc(N[C@H](C)c3cc(N)cc(C(F)(F)F)c3)c2cc1O[C@H]1CCOC1`, the figures for the half-inhibitory concentration (IC50) in assay [1], in assay [2] and in assay [3] were 50.5 nM, 169 nM and 106 nM, respectively.
